Source: patent publication USRE38009E1, “Zeaxanthin formulations for human ingestion” (Zeavision LLC, priority 1995, dated 2003)

Test: Storage of purified zeaxanthin powder for roughly six months unprotected, chiral column chromatography analysis
Type: physicochemical
Settings: relatively unprotected, normal refrigeration, no anti-oxidants, no protection from atmospheric oxygen, fresh preparation at least 98% pure
Source text: After roughly six months of storage in a relatively unprotected state (usually under normal refrigeration with moderately frequent removal; without containing any anti-oxidants, and without taking any precautions to prevent contact by atmospheric oxygen), a sample of the zeaxanthin preparation was sent for stereoisomeric analysis to Prof.

Zeaxanthin content of preparation after storage: 92%
Structure (SMILES): CC1=C(/C=C/C(C)=C/C=C/C(C)=C/C=C/C=C(C)/C=C/C=C(C)/C=C/C2=C(C)C[C@@H](O)CC2(C)C)C(C)(C)C[C@H](O)C1 [Zeaxanthin, zeaxanthin]
